{"source": "patent US4919937A", "about": "“Percutaneous administration of tamoxifen” (priority 1984, dated 1990)", "key": {"progesterone receptor": {"system": "progesterone receptor", "conditions": "common knowledge; cited from earlier work"}, "[1]": {"conditions": "passage through the liver; cited from earlier work"}, "progesterone receptors": {"system": "progesterone receptors", "assay": "tracer doses of tritiated progesterone administered percutaneously under the same conditions", "format": "in vivo", "description": "In another experiment, tracer doses of tritiated progesterone were administered under the same conditions as 4-hydroxytamoxifen."}, "solubility in alcohol": {"assay": "solubility in alcohol", "format": "physicochemical", "text": "(§1) The daily doses of product to be administered are easy to calculate in terms of the absorption coefficients of the drugs and the doses which it is desired to obtain for 4-hydroxytamoxifen and progesterone at the level of their receptor molecules."}, "[2]": {"conditions": "cited from earlier work; for hepatic by-pass after percutaneous administration: alcoholic solution"}, "cutaneous absorption": {"assay": "cutaneous absorption", "format": "in vivo", "conditions": "skin, topical or ocular; percutaneous; read-out: coefficient of cutaneous absorption", "text": "as §1"}, "[3]": {"system": "receptor molecules in cancerous mammary tumors", "assay": "percutaneous application on the skin overlying cancerous mammary tumors", "format": "in vivo"}, "[4]": {"system": "protein structures corresponding to hormonal receptors", "assay": "tracer doses of tritiated 4-hydroxytamoxifen applied in alcoholic solution 24 hours before excision of cancerous breasts", "format": "in vivo"}, "[5]": {"assay": "tracer doses of tritiated 4-hydroxytamoxifen applied in alcoholic solution 24 hours before excision of cancerous breasts", "format": "in vivo", "conditions": "human, breast tissue, topical or ocular, read-out: portion of the radioactivity metabolized to unidentified products"}, "[6]": {"assay": "radioactive 4-hydroxytamoxifen applied on the skin of a healthy subject, urinary radioactivity in 15 days and circulating blood", "format": "in vivo", "text": "A small portion of the radioactivity is metabolized to unidentified products (3%). In parallel, this same product in radioactive form was applied on the skin of a healthy subject, and a calculation was made of the radioactivity appearing in the urine in 15 days following administration of the product. […] It is only as a secondary effect that it reaches the liver, where it is inactivated."}, "[7]": {"conditions": "tamoxifen per os; 4-hydroxytamoxifen orally or parenterally, other than percutaneously; cited from earlier work"}}, "data": [{"compound": "CC(=O)[C@H]1CC[C@H]2[C@@H]3CCC4=CC(=O)CC[C@]4(C)[C@H]3CC[C@]12C", "note": "[progesterone]", "values": [{"measurement": "action on the progesterone receptor", "setting": "progesterone receptor", "result": "binds to is own receptor, which it activates"}, {"measurement": "metabolism/degradation after oral administration", "setting": "[1]", "result": "completely destroyed during its passage through the liver"}, {"measurement": "radioactivity in the blood", "setting": "progesterone receptors; blood", "result": "No radioactivity circulates in the blood"}, {"measurement": "uptake by specific receptors and inactivation", "setting": "progesterone receptors; conclusion", "result": "taken up by specific receptors and that it is inactivated for the most part in situ"}, {"measurement": "form found, binding to the progesterone receptors and metabolism", "setting": "progesterone receptors; tritiated, percutaneous, excised cancerous breast", "result": "appeared in its original form, partly bound to the progesterone receptors and partly metabolized"}, {"measurement": "metabolites in the urine", "setting": "progesterone receptors; urine", "result": "various metabolites of progesterone appeared in the 56 hours following the experiment"}, {"measurement": "solubility in alcohol", "setting": "solubility in alcohol", "result": "soluble in alcohol"}, {"measurement": "topical retention", "setting": "[2]; alcoholic solution or 60% strength aqueous alcoholic gel", "result": 48, "unit": "h"}, {"measurement": "hepatic by-pass after percutaneous administration", "setting": "[2]", "result": "hepatic by-passes thus produced were demonstrated"}, {"measurement": "Fa", "setting": "cutaneous absorption", "result": 10, "unit": "%"}]}, {"compound": "CC/C(=C(\\c1ccc(O)cc1)c1ccc(OCCN(C)C)cc1)c1ccccc1", "note": "[4-hydroxytamoxifen, 1-[4-(2-N-dimethylaminoethoxy)phenyl]-1-(4-hydroxyphenyl)-2-phenylbut-1-(Z)-ene]", "values": [{"measurement": "passage through the cutaneous barrier and uptake on receptor molecules in tumors", "setting": "[3]; 60% strength alcoholic solution", "result": "capable of passing through the cutaneous barrier and being taken up on the receptor molecules in these tumors"}, {"measurement": "form found at the hormonal receptors", "setting": "[4]", "result": "appeared in its original form at the level of the protein structures corresponding to hormonal receptors"}, {"measurement": "metabolised at 24 h", "setting": "[5]", "result": 3, "unit": "%"}, {"measurement": "metabolism/degradation after oral administration", "setting": "[1]", "result": "more rapidly degraded than tamoxifen"}, {"measurement": "product in circulating blood", "setting": "[6]; circulating blood", "result": "only traces of the product are detectable"}, {"measurement": "destruction of the product from urinary elimination", "setting": "[6]; healthy subject, urine, 15 days", "result": "weak and gradual destruction of the product"}, {"measurement": "harmful side effects: stimulation of the ovaries", "setting": "[7]", "result": "detrimental paradoxical stimulation of the ovaries"}, {"measurement": "solubility in alcohol", "setting": "solubility in alcohol", "result": "soluble in alcohol"}, {"measurement": "Fa", "setting": "cutaneous absorption", "result": "~1", "unit": "%"}]}, {"compound": "CC/C(=C(\\c1ccccc1)c1ccc(OCCN(C)C)cc1)c1ccccc1", "note": "[tamoxifen, 1-[4-(2-N-dimethylaminoethoxy)phenyl]-1,2diphenylbut-1-(Z)-ene]", "values": [{"measurement": "activation to the 4-hydroxy derivative by the percutaneous route", "setting": "[3]; percutaneous, breast", "result": "cannot be activated to its 4-hydroxy derivative by the percutaneous route"}, {"measurement": "metabolism/degradation after oral administration", "setting": "[1]", "result": "converted during its passage through the liver to numerous metabolites"}, {"measurement": "harmful side effects: stimulation of the ovaries", "setting": "[7]", "result": "a paradoxical stimulation of the ovaries"}]}, {"compound": "C[C@]12CC[C@H]3[C@@H](CCC4=CC(=O)CC[C@@]43C)[C@@H]1CC[C@@H]2O", "note": "[testosterone]", "values": [{"measurement": "hepatic by-pass after percutaneous administration", "setting": "[2]", "result": "hepatic by-passes thus produced were demonstrated"}]}]}
